Laboratory results reported in the OligoGym collection.
“And” between values parts separate entries of the source, which are not always exact repeats. Equal entries are not always repeated. After the bases stand the sugars from the 5' end (letter, count) and the backbone: PS all phosphorothioate, else s phosphorothioate and o phosphodiester by linkage. Methylation of C is not given here. e = 2'-O-(2-methoxyethyl) (MOE); k = constrained ethyl (cEt); d = 2'-deoxy (DNA)

Legend:
[1] = target: IRF5; conditions: ASO
[2] = target: DGAT2; conditions: ASO

Row | Sequence | target mRNA inhibition ([1]; KARPAS-229, 4 µM) | other results
1 | ATCACCACTGTGTACC (sugars kkkddddddddkekek, PS) | 0% | –
2 | TGAGTCATGGGCTGAG (sugars kkdddddddddkdkdk, PS) | 12% | –
3 | ACTGACACAGGCGGAT (sugars k2 d8 e4 k2, PS) | 0% | –
4 | TGTCTAGTGTCATGGA (sugars kkddddddddkekekk, PS) | 10% | –
5 | ACCATTCTATGCCTTT (sugars kddddddddddkekek, PS) | 0% | –
6 | GATGGTGTTATCTCCG (sugars kkdddddddddkdkdk, PS) | 0% | –
7 | AGGAGTGAGACGAGCA (sugars k3 d9 k3 e1, PS) | 37% | –
8 | TAGGACGAGTTATGGG (sugars k3 d10 k3, PS) | 25% | –
9 | CCCAATGCAACATCCA (sugars kkkddddddddkekek, PS) | 0% | –
10 | GCTGTCACATCTCCAC (sugars kddddddddddkekek, PS) | 17% | –
11 | CACTGACACAGGCGGA (sugars kkkddddddddkdkdk, PS) | 0% | –
12 | GAAGTGAGTCTCAAAC (sugars kkddddddddkekekk, PS) | 27% | –
13 | TGCACTGACACAGGCG (sugars k2 d9 e3 k2, PS) | 18% | –
14 | GGTTCTTGGACTCTCA (sugars kdddddddddkekeke, PS) | 0% | –
15 | AGCTTGGTCTTGACCT (sugars kdddddddddkekeke, PS) | 14% | –
16 | CATTCCATATACACAC (sugars kkkddddddddkdkdk, PS) | 40% | –
17 | GCACTGACACAGGCGG (sugars k3 d10 k3, PS) | 14% and 0% | –
18 | GGTCTTGACCTCCCGC (sugars kkkddddddddkekek, PS) | 29% | –
19 | GTCTTTGAGGTCTGGG (sugars kdddddddddkekeke, PS) | 33% | –
20 | CATCAGCTTTCTTGTC (sugars k3 d10 k3, PS) | 28% | –
21 | CAGGTTCTTGGACTCT (sugars kkdddddddddkekek, PS) | 0% | –
22 | CCCAATGCAACATCCA (sugars kkddddddddkekekk, PS) | 0% | –
23 | AGCTTGGTCTTGACCT (sugars kkkddddddddkekek, PS) | 3% | –

Row | Sequence | target mRNA inhibition ([1]; KARPAS-229, 4 µM) | other results
24 | TTTGTGACTGTATTAC (sugars k3 d10 k3, PS) | 50% | –
25 | GTCTGGCCCTTTTGGA (sugars kkdddddddddkdkdk, PS) | 0% | –
26 | GTCTGGCCCTTTTGGA (sugars kkddddddddkekekk, PS) | 0% | –
27 | TTATCTCCGTCCTGGC (sugars kkddddddddkekekk, PS) | 0% | –
28 | AGATGGTGTTATCTCC (sugars k3 d9 k3 e1, PS) | 0% | –
29 | CACATCTCCACATCAG (sugars k3 d10 k3, PS) | 45% | –
30 | GGTCTGGCCCTTTTGG (sugars kkkddddddddkdkdk, PS) | 0% | –
31 | AAGGGCACAGCGCAGG (sugars kkkddddddddkekek, PS) | 0% | –
32 | GGAAGTGAGTCTCAAA (sugars k2 d9 e3 k2, PS) | 32% | –
33 | CCTTCTGCAGGGAGTC (sugars kkkdddddddddkeke, PS) | 1% | –
34 | AGTGAGTCTCAAACCA (sugars k3 d10 k3, PS) | 0% | –
35 | GGTGTATTTCCCTGTC (sugars kkkddddddddkdkdk, PS) | 1% | –
36 | TGAGTCATGGGCTGAG (sugars k3 d9 k3 e1, PS) | 11% | –
37 | GTTATCTCCGTCCTGG (sugars k3 d10 k3, PS) | 31% | –
38 | GGTTCTTGGACTCTCA (sugars kkkdddddddddkeke, PS) | 48% and 67% | target mRNA inhibition ([1]; KARPAS-229, 0.44444 µM): 41%; target mRNA inhibition ([1]; KARPAS-229, 1.33333 µM): 56%; target mRNA inhibition ([1]; KARPAS-229, 12 µM): 81%
39 | CCACTGTGTACCCCAT (sugars kkddddddddddkeke, PS) | 19% | –
40 | TTGTCTAGTGTCATGG (sugars k3 d9 k3 e1, PS) | 20% | –
41 | CACATCTCCACATCAG (sugars kkddddddddddkeke, PS) | 23% | –
42 | TCATGAGTAATAGGAG (sugars k3 d10 k3, PS) | 11% | –
43 | TGCACTGACACAGGCG (sugars kkdddddddddkekek, PS) | 0% | –
44 | TTATTTCTGCTCCAGG (sugars kkkdddddddddkeke, PS) | 43% | –
45 | AATTTTGTGACTGTAT (sugars k3 d10 k3, PS) | 0% | –
46 | TTCCAATTTTGCATTC (sugars k3 d10 k3, PS) | 39% | –

Row | Sequence | target mRNA inhibition ([1]; KARPAS-229, 4 µM) | other results
47 | AGCTTGGTCTTGACCT (sugars kkddddddddddkeke, PS) | 0% | –
48 | AGGTTCTTGGACTCTC (sugars kkddddddddddkeke, PS) | 41% | –
49 | GCTTGGTCTTGACCTC (sugars kkddddddddkekekk, PS) | 21% | –
50 | GGTTCTTGGACTCTCA (sugars kddddddddddkekek, PS) | 9% | –
51 | AGGCATGCTTCCTCCCA (sugars e3 d10 e4, PS) | – | target mRNA inhibition ([2]; HepG2, 2.5 µM): 73%; target mRNA inhibition ([2]; HepG2, 10 µM): 49%
52 | CAGGACCCCGGAGTAGGCGG (sugars e5 d10 e5, PS) | – | target mRNA inhibition ([2]; HepG2, 0.12 µM): 75%
53 | ACTATCACACCACCTCCCAC (sugars e5 d10 e5, PS) | – | target mRNA inhibition ([2]; HepG2, 2.5 µM): 2%; target mRNA inhibition ([2]; HepG2, 10 µM): 62%
54 | CCAGGTAAGGCCGTATGCCT (sugars e2 d13 e5, PS) | – | target mRNA inhibition ([2]; HepG2, 0.12 µM): 64%
55 | CCAGGTAAGGCCGTATGCCT (sugars e5 d10 e5, PS) | – | target mRNA inhibition ([2]; HepG2, 0.12 µM): 78% and 76%; target mRNA inhibition ([2]; HepG2, 2.5 µM): 18%; target mRNA inhibition ([2]; HepG2, 10 µM): 20%; target mRNA inhibition ([2]; HepG2, 20 µM): 43%
56 | CCAGGGCCTCCATGTACATG (sugars e3 d14 e3, PS) | – | target mRNA inhibition ([2]; HepG2, 0.12 µM): 86%; target mRNA inhibition ([2]; HepG2, 10 µM): 59%; target mRNA inhibition ([2]; HepG2, 20 µM): 41%
57 | TGATCTCATCAAGAGATAAC (sugars e5 d10 e5, PS) | – | target mRNA inhibition ([2]; HepG2, 0.12 µM): 17%
58 | TTGTCCTAGTGCCCCAGGGA (sugars e5 d10 e5, PS) | – | target mRNA inhibition ([2]; HepG2, 2.5 µM): 75%; target mRNA inhibition ([2]; HepG2, 10 µM): 85%
59 | GGCTTCACCGTCCCACAGCA (sugars e5 d10 e5, PS) | – | target mRNA inhibition ([2]; HepG2, 0.12 µM): 39%
60 | AGGACAGAGGTTCAACATCC (sugars e5 d10 e5, PS) | – | target mRNA inhibition ([2]; HepG2, 0.12 µM): 53%
61 | CAGGTACTCCCTCAACACAG (sugars e5 d10 e5, PS) | – | target mRNA inhibition ([2]; HepG2, 0.12 µM): 52%
62 | GTTTCGGACCCACTGTGACC (sugars e5 d10 e5, PS) | – | target mRNA inhibition ([2]; HepG2, 0.12 µM): 65%
63 | TGGTGGTTGCAATGTTGCCA (sugars e5 d10 e5, PS) | – | target mRNA inhibition ([2]; HepG2, 2.5 µM): 88% and 80%; target mRNA inhibition ([2]; HepG2, 10 µM): 92% and 91%
64 | ACCAGCTGGATGGGAAAGTA (sugars e5 d10 e5, PS) | – | target mRNA inhibition ([2]; HepG2, 0.12 µM): 21%
65 | CTTACTGTTCAGCAGTCTGC (sugars e5 d10 e5, PS) | – | target mRNA inhibition ([2]; HepG2, 2.5 µM): 57%; target mRNA inhibition ([2]; HepG2, 10 µM): 90%
66 | AATGCCAATGCCTAGGT (sugars e3 d10 e4, PS) | – | target mRNA inhibition ([2]; HepG2, 2.5 µM): 70% and 69%; target mRNA inhibition ([2]; HepG2, 10 µM): 81% and 82%
67 | CAGGACCTCAGGGCTGGCCC (sugars e5 d10 e5, PS) | – | target mRNA inhibition ([2]; HepG2, 2.5 µM): 57% and 50%; target mRNA inhibition ([2]; HepG2, 10 µM): 71%
68 | CTTCACCAGGGCCTCCATGT (sugars e5 d10 e5, PS) | – | target mRNA inhibition ([2]; HepG2, 0.12 µM): 46%; target mRNA inhibition ([2]; HepG2, 2.5 µM): 10%; target mRNA inhibition ([2]; HepG2, 10 µM): 66%; target mRNA inhibition ([2]; HepG2, 20 µM): 87%
69 | TGCCAATGCCTAGGTCACAG (sugars e5 d10 e5, PS) | – | target mRNA inhibition ([2]; HepG2, 2.5 µM): 78% and 87%; target mRNA inhibition ([2]; HepG2, 10 µM): 87% and 91%
